Assay results from ChEMBL document CHEMBL6096665 (Eur J Med Chem, 2025).

Molecular target: T1, Bile acid receptor (Homo sapiens, UniProt Q96RI1)
T1 sequence (Q96RI1 whole entry): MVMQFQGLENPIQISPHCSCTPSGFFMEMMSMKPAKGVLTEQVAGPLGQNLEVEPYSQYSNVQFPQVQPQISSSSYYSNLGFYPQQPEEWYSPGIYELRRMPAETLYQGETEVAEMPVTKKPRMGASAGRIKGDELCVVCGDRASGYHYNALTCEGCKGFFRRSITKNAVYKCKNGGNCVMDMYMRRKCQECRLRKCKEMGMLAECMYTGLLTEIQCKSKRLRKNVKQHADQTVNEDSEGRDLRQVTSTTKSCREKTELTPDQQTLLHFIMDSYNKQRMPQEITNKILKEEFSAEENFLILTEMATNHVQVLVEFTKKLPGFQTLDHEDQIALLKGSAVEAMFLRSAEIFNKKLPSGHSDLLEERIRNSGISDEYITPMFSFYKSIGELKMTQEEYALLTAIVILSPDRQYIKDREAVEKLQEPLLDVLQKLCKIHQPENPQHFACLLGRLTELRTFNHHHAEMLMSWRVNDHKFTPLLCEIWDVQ
Test: Agonist activity at FXR-LBD (unknown origin) incubated for 3 hrs using fluorescein coactivator peptide by FRET assay

An EC50 of 253 nM was found for `O=C(O)c1ccc(OCc2ccc(OCc3c(-c4c(Cl)cccc4Cl)noc3C3CC3)cc2)cc1` in this work.
